Measured values reported in patent US7196110B2, “N-substituted tricyclic 3-aminopyrazoles as inhibitors for the treatment of cell proliferative disorders” (Janssen Phamaceutica N.V., priority 2002, dated 2007).
Where two headings read alike, the source gives them in different places.

Legend:
[1] = Rat pharmacokinetics study of pro-drugs, conversion to parent monitored by HPLC/MS/MS; assay type: in vivo; conditions: po, rat plasma, 10 mg/kg orally, read-out: Fast PK (0.5 h) conc. Prodrug
Protocol: Furthermore, pro-drugs have been administered orally to rats (10 mg/kg) in pharmacokinetics studies, and the conversion of pro-drugs to the parent compound was montitored by HPLC/MS/MS analyses. Parent compound or the glucuronide conjugates of the parent compound was detected in the rat plasma from the pharmacokinetics studies (Table G).

[2] = target: T1, PDGF-receptor beta enzyme comprising the tyrosine kinase domain (Homo sapiens, UniProt P09619); assay: Inhibition of PDGF-receptor kinase activity (cell-free, PLC1 peptide, 33P Flashplate); assay type: biochemical; conditions: for inhibition at 10 µM: compound at 10 uM, read-out: Percent Inhibition @ 10 uM
T1 construct: from amino acid 545 to 1106 of GenBank Access NO: AAA36427
Outline: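 The IC50 is the inhibitor level halving kinase activity relative to inhibitor-free wells, measured as 33P captured on a streptavidin-bound biotin-PLC1 peptide. The reaction ran 60 min at 30 °C in pH 8 Tris buffer with 1 mM DTT, 5 μM ATP and the 545–1106 kinase-domain enzyme.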

[3] = system: PDGF-BB-stimulated angiogenesis; assay: Anti-angiogenesis matrigel mouse model (MM assay) supplemented with PDGF-BB, plug hemoglobin content; assay type: in vivo, mice (C57BL/6J); conditions: mice
Text: Angiogenesis inhibitory activity of a compound of this invention can be measured in vivo using the matrigel mouse model (MM Assay) of angiogenesis (Passaniti et al., Laboratory Investigation, 67: 519–528, 1992). The matrigel mouse assay is a well-established method to quantify angiogenesis (see e g. Capogrossi et al., Methods in Molecular Medicine, Vascular Disease: Molecular Biology and Gene Therapy Protocols, Edited by: A. H. Baker, Humana Press Inc., Totowa, N.J., 1999). The model has been characterized extensively for its relevance as a mimic of the process of angiogenesis and has been used extensively to evaluate in vivo both potential angiogenic and anti-angiogenic activity of numerous compounds/agents. […] All procedures involving animals were conducted in an animal facility fully accredited by the American Association for Assessment and Accreditation of Laboratory Animal Care (AAALAC) and in accordance with The Guide for the Care and Use of Laboratory Animals (NIH). […]
Normal male mice (C57BL/6J) were injected subcutaneously (ventrally below rib cage at abdominal midline) with 1.0 mL of chilled matrigel supplemented with a single purified pro-angiogenic growth factor (100–500 ng/mL of either rhPDGF-BB (supra), recombinant human basic fibroblast growth factor, rhFGF-basic (R&D System Cat. No 233-FB) or recombinant human vascular endothelial growth factor, rhVEGF (PanVera Cat. No R2951) and heparin (35 U/mL). Compounds are formulated as 0.1% suspensions (1 mg/mL final concentration) in 0.5% methylcellulose. Vehicle or test compounds (8–10 mice per treatment group) were administered orally by gavage beginning two hours after matrigel injections. […] Supernatants were removed and the hemoglobin concentration in the plug extract was measured spectrophotometrically using the Drabkin's assay method (Drabkin's reagent kit 525-A; SIGMA) and read on a Beckman DU 7400 Spectrophotometer. […] Group differences were analyzed statistically using the Mann-Whitney Test, with a p-value of 0.05 or less considered statistically significant. […]

c-Abl kinase = c-Abl kinase (Abelson murine leukemia virus, UniProt P00521); assay: Inhibition of c-Abl kinase activity (cell-free, Abl peptide substrate, 33P Flashplate); assay type: biochemical; conditions: IC50 for the c-Abl kinase activity
[4] = PDGF-R kinase activity, read-out: IC50

T1 sequence (P09619 545-1106): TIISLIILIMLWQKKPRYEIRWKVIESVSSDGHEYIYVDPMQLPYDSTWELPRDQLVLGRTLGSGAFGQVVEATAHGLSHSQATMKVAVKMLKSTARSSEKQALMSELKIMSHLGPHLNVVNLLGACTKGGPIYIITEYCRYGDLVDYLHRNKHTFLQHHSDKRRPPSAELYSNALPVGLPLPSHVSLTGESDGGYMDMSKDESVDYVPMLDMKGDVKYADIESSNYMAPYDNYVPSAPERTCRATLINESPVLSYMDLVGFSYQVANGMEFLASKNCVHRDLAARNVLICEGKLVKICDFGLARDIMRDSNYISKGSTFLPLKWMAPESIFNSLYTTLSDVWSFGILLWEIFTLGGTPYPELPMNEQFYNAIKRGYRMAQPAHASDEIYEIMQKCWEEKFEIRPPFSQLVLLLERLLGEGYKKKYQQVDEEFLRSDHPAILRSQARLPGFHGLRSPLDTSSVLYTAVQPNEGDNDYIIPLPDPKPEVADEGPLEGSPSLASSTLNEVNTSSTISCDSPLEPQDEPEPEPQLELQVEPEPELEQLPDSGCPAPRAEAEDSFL
Sequence of c-Abl kinase (P00521 115-385): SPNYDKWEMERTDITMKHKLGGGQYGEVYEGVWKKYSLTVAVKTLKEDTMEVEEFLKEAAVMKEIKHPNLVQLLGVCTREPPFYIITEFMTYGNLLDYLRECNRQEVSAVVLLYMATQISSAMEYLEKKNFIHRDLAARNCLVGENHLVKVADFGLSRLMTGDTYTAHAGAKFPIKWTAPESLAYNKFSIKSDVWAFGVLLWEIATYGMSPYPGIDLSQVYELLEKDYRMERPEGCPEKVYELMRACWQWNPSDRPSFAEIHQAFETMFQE

SMILES | concentration at 0.5 h [1] [nM] | inhibition at 10 µM ([2]; PDGF-R kinase activity) [%] | IC50 ([2]; read-out: IC50 (μM) on PDGF-R kinase activity) [µM] | IC50 [2, 4] [µM] | % Inhibition @ 30 mg/kg po (angiogenesis, MM assay supplemented with PDGF-BB) [3] [%] | IC50 (c-Abl kinase) [nM]
CNC(=O)n1nc(Nc2cccc(F)c2)c2c1-c1cc(OC)c(OC)cc1C2 [Compound 578, 3-(3-Fluoro-phenylamino)-6,7-dimethoxy-4H-indeno[1,2-c]pyrazole-1-carboxylic acid methylamide] | 7800 | 80 | 4.02 | – | – | –
COc1cc2c(cc1OC)-c1c(c(Nc3cccc(F)c3)nn1C(=O)Oc1ccccc1)C2 [Compound 433, 3-(3-Fluoro-phenylamino)-6,7-dimethoxy-4H-indeno[1,2-c]pyrazole-1-carboxylic acid phenyl ester] | 60 | 71 | – | 0.585 | – | –
COc1cc2c(cc1OC)-c1c(c(Nc3cccc(F)c3)nn1C(=O)OCCOCCOCCO)C2 [Compound 471, 3-(3-Fluoro-phenyl-amino)-6,7-dimethoxy-4H-indeno[1,2-c]pyrazole-1-carboxylic acid 2-[2-(2-hydroxy-ethoxy)-ethoxy]-ethyl ester] | 0 | 90.5 | – | 0.135 | – | –
COc1cc2c(cc1OC)-c1n[nH]c(Nc3cccc(C(F)(F)F)c3)c1C2 [Compound 26, (6,7-Dimethoxy-2,4-dihydro-indeno[1,2-c]pyrazol-3-yl)-(3-trifluoromethyl-phenyl)-amine] | – | 92 | – | 0.037 | 42 | 134
COCC(=O)n1nc(Nc2cccc(F)c2)c2c1-c1cc(OC)c(OC)cc1C2 [Compound 465, 1-[3-(3-Fluoro-phenylamino)-6,7-dimethoxy-4H-indeno[1,2-c]pyrazol-1-yl]-2-methoxy-ethanone] | 223 | 96 | – | 0.00673 | – | 51
